From patent US11286281B2, “Homodetic cyclic peptides targeting alpha-4-beta-7 integrin” (priority 2017, dated 2022)
Numbered stars: 1 amine (or outer) side, 2 acyl side, 3 side chain; on linkers, the order of the positions; unused ones are H or OH. Square brackets hold non-standard residues; d marks the D form. Peptide text beside a SMILES is read from it. X1 = O=C(c1ccc(-c2ccc(N3CCNCC3)cc2)c(CN[*:1])c1)[*:2]

Target: T1, integrin α4β7 (Homo sapiens, UniProt P13612+P26010)
T1 construct: purchased R&D Systems 5397-A3-050
T1 sequence (P13612 34-970 limits assumed): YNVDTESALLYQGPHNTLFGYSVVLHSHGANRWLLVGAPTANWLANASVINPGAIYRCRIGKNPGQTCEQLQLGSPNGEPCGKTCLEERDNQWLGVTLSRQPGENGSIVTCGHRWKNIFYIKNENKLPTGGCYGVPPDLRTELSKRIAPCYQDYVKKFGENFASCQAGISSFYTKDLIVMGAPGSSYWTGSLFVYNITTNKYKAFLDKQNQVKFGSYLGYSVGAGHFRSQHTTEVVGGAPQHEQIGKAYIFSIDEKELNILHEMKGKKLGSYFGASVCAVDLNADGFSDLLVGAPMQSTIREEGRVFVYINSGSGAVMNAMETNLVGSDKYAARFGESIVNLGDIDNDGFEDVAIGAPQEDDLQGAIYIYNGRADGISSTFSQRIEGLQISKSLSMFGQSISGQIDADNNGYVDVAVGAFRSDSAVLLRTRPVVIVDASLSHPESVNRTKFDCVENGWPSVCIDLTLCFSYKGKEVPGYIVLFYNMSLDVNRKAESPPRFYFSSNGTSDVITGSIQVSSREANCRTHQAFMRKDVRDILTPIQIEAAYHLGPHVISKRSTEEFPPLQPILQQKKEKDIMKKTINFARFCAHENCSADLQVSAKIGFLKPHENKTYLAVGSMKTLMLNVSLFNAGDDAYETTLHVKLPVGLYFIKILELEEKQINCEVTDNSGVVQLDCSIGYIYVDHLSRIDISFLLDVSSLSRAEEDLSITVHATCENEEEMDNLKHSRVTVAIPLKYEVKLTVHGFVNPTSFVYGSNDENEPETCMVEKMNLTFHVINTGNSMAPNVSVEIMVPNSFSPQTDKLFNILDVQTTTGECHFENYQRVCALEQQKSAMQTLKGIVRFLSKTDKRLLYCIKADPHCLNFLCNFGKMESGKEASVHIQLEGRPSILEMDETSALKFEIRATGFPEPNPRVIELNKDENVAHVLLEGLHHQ
T1 sequence (P26010 20-723 limits assumed): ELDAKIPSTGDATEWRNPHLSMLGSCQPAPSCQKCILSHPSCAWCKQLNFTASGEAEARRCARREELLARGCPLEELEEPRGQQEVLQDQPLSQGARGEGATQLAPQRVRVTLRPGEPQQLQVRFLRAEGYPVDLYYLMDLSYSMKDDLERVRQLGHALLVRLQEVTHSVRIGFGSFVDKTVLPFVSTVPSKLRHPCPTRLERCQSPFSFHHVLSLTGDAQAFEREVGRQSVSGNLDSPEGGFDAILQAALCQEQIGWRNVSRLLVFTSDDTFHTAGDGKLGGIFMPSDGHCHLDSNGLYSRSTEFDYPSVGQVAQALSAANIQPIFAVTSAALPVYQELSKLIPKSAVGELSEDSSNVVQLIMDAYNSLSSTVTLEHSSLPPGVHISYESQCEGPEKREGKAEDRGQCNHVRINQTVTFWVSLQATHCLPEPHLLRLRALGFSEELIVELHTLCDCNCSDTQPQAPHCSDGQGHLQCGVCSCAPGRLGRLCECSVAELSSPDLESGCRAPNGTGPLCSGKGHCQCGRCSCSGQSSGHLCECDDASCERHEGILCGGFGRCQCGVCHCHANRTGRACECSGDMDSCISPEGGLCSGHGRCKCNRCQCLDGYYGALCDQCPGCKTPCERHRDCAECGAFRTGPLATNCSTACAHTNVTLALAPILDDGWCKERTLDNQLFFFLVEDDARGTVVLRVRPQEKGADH
Experiment: Integrin α4β7-MAdCAM-1 ELISA competition assay
Format: binding
Details: values of the second run
Experimental: Integrin α4β7-MAdCAM-1 ELISA Competition Assay
A 96-well Microlon plate (Greiner, 655001) was coated with 100 μl per well of a solution of 1 μg/ml recombinant integrin α4β7 (R&D Systems, 5397-A3-050) in carbonate buffer (50 mM, pH 9.6). The plate was incubated at 4′C overnight. The solution was removed and 250 μl blocking buffer (50 mM Tris, 150 mM NaCl, 1 mM MnCl2, 1% BSA, 0.05% Tween) was added per well. The plate was then incubated for 1 hour at room temperature. The plate was washed three times with wash buffer (50 mM Tris, 100 mM NaCl, 1 mM MnCl2, 0.05% Tween). To each well, 50 μl of compound diluted in assay buffer was added by transfer from a compound serial dilution plate. 50 μl recombinant MAdCAM-Fc (R&D systems, 6056-MC-050) at a concentration of 0.1 μg/ml in assay buffer (50 mM Tris, 150 mM NaCl, 1 mM MnCl2, 0.1% BSA, 0.05% Tween) was added to each well. The plate was incubated at room temperature with shaking (300 rpm) for 2 hours to reach binding equilibrium. Then the plate was washed three times in wash buffer and 100 μl anti-human IgG Fc specific-HRP (Abcam, Ab97225) diluted at 1:2000 in assay buffer was added to each well. The plate was incubated at room temperature for 1 hour under agitation. […] The reaction was stopped after 2 minute-incubation by adding 50 μl of 1M H2SO4 and optical absorbance was read at 450 nm.

Q: How did the IC50 turn out when CC(C)C[C@@H]1NC(=O)c2ccc(-c3ccc(N4CCNCC4)cc3)c(c2)CNC(=O)[C@@H]2CCCN2C(=O)[C@H](C)NC(=O)[C@H]([C@@H](C)O)NC(=O)[C@H](CC(=O)O)NC1=O [Compound 8] (cyclo(P[X1]LDTA)) was run?
A: ~24 nM
